Experimental data published in patent publication US11291666B2, “Uses” (INTRA-CELLULAR THERAPIES, INC., priority 2016, dated 2022).

Test system: inflammatory gene expression in mouse striatum
Assay: Inflammatory gene expression in mouse striatum after LPS (Q-PCR)
Type: in vivo
Description: RTqPCR: RNA from BV2 cells purified using RNeasyKit (Qiagen) and from mouse tissue using TRIzol (Ambion). TaqMan primer-probe assays from Thermo Fisher. mRNA levels for all conditions are normalized to GAPDH and to vehicle control (ΔΔCt). Data are analyzed statistically using one-way ANOVA with the Bonferroni post-test for multiple comparisons.
The results are based upon an evaluation of samples using Q-PCR.
Data from a further experiment measuring the effect of PDE1 inhibition on inflammatory gene expression in mouse striatum is depicted in FIG. 7. […] Striatal tissue is isolated and flash frozen, and RNA is extracted. Measurements from RT-qPCR are shown as log 2 fold change (2ΔΔCt). n=4 *p<0.05, **p<0.01, ***p<0.001, ****p<0.0001.
Data from yet another experiment measuring the effect of PDE1 inhibition on inflammatory gene expression in mouse striatum is depicted in FIG. 8. […] Striatal tissue is analyzed for mRNA levels of TNF, IL1β, Ccl2, and IL6. Expression levels are shown as change in Q-PCR signal from vehicle (ΔΔCt) and compared using an ANOVA. * p<0.05, **p<0.01, ***p<0.001.

[1] = Striatum Mouse + LPS, initial results
[2] = adult mice, 10 mg/kg i.p., 500 μg/kg LPS s.c. for 2 hours, FIG. 8
[3] = mouse striatum, 10 mg/kg i.p., LPS 500 μg/kg s.c., two hours, FIG. 7

Question: With `CN1C(=O)c2c(nn(Cc3ccc(-c4cccc(F)n4)cc3)c2Nc2ccccc2)N2C1=N[C@@H]1CCC[C@@H]12` [Compound 214] as the compound, how does the “Chemokine (C-C) motif Ligand 2 expression (Q-PCR)” value [1] read?
Answer: Its value is “Down”.

Question: And the “Oncostatin M expression (Q-PCR)” value [1]?
Answer: Its value is “Down”.

Question: What about the “expression of Ccl2 mRNA in striatum” value [2] of the same compound?
Answer: The value was “attenuates”.

Question: And the “expression of TNF mRNA in striatum” value [2]?
Answer: Its value is “attenuates”.

Question: And the “levels of IL1-beta mRNA in striatum” value [2]?
Answer: The value was “trended to lower levels”.

Question: And the “levels of IL6 mRNA in striatum” value [2]?
Answer: The value was “trended to lower levels”.

Question: What about the “LPS stimulation of the pro-inflammatory cytokines TNFα, Ccl2, IL-1β, and IL-6” value [3] of the same compound?
Answer: Its value is “inhibits”.

Question: And the “expression of the anti-inflammatory cytokine IL-10” value [3]?
Answer: The value was “significantly enhance”.

Question: What about the “LPS-induced inflammatory gene expression changes in mice” value (striatal tissue, 10 mg/kg i.p., 2 hours, FIG. 8) of the same compound?
Answer: The value was “prevents”.
